From PubChem BioAssay (NCI)
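Following 48 hours of exposure in 96-well plates, responses at five concentrations were used to interpolate endpoints linearly. GI50 is the concentration that inhibits growth by half. TGI denotes the concentration required for complete inhibition of growth.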

Legend:
Experiment in all cases: DTP human tumour cell line panel, 48 h
[1] = system: 786-0 renal
[2] = system: A498 renal
[3] = system: A549 NSCLC
[4] = system: ACHN renal
[5] = system: BT-549 breast
[6] = system: CAKI-1 renal
[7] = system: CCRF-CEM leukemia
[8] = system: COLO 205 colon
[9] = system: DU-145 prostate
[10] = system: EKVX NSCLC
[11] = system: HCC-2998 colon
[12] = system: HCT-116 colon
[13] = system: HCT-15 colon
[14] = system: HL-60(TB) leukemia
[15] = system: HOP-62 NSCLC
[16] = system: HOP-92 NSCLC
[17] = system: HS 578T breast
[18] = system: HT29 colon
[19] = system: IGROV1 ovarian
[20] = system: K-562 leukemia
[21] = system: KM12 colon
[22] = system: LOX IMVI melanoma
[23] = system: M14 melanoma
[24] = system: MALME-3M melanoma
[25] = system: MCF7 breast
[26] = system: MDA-MB-231 breast
[27] = system: MDA-MB-435
[28] = system: MOLT-4 leukemia
[29] = system: NCI-H226 lung
[30] = system: NCI-H23 lung
[31] = system: NCI-H460 lung
[32] = system: NCI-H522 lung
[33] = system: NCI/ADR-RES ovarian
[34] = system: OVCAR-3 ovarian
[35] = system: OVCAR-4 ovarian
[36] = system: OVCAR-5 ovarian
[37] = system: OVCAR-8 ovarian
[38] = system: PC-3 prostate
[39] = system: RPMI-8226 leukemia
[40] = system: RXF 393 renal
[41] = system: SF-268 CNS
[42] = system: SF-295 CNS
[43] = system: SF-539 CNS
[44] = system: SK-MEL-2 melanoma
[45] = system: SK-MEL-28 melanoma
[46] = system: SK-MEL-5 melanoma
[47] = system: SK-OV-3 ovarian
[48] = system: SN12C renal
[49] = system: SNB-19 CNS
[50] = system: SNB-75 CNS
[51] = system: SR leukemia
[52] = system: SW-620 colon
[53] = system: T-47D breast
[54] = system: TK-10 renal
[55] = system: U251 CNS
[56] = system: UACC-257 melanoma
[57] = system: UACC-62 melanoma
[58] = system: UO-31 renal

Structure (SMILES): CN1CCN(Cc2ccc(NC(=O)c3cncc(C#Cc4cnn5ccccc45)c3)cc2C(F)(F)F)CC1
- GI50 [1]: 1100 nM
- TGI [1]: 2260 nM
- GI50 [2]: 821 nM
- TGI [2]: 1890 nM
- GI50 [3]: 723 nM
- TGI [3]: 3560 nM
- GI50 [4]: 873 nM
- TGI [4]: 3720 nM
- GI50 [5]: 1470 nM
- TGI [5]: 4110 nM
- GI50 [6]: 940 nM
- TGI [6]: 4560 nM
- GI50 [7]: 202 nM
- TGI [7]: 1670 nM
- GI50 [8]: 291 nM
- TGI [8]: 1050 nM
- GI50 [9]: 1170 nM
- TGI [9]: 3950 nM
- GI50 [10]: 786 nM
- TGI [10]: 2000 nM
- GI50 [11]: 902 nM
- TGI [11]: 3070 nM
- GI50 [12]: 294 nM
- TGI [12]: 1470 nM
- GI50 [13]: 818 nM
- TGI [13]: 3660 nM
- GI50 [14]: 250 nM
- TGI [14]: 1150 nM
- GI50 [15]: 939 nM
- TGI [15]: 2930 nM
- GI50 [16]: 633 nM
- TGI [16]: 2980 nM
- GI50 [17]: 735 nM
- TGI [17]: 2910 nM
- GI50 [18]: 811 nM
- TGI [18]: 4890 nM
- GI50 [19]: 858 nM
- TGI [19]: 3610 nM
- GI50 [20]: 5 nM
- TGI [20]: 3160 nM
- GI50 [21]: 16 nM
- TGI [21]: 1140 nM
- GI50 [22]: 588 nM
- TGI [22]: 1370 nM
- GI50 [23]: 576 nM
- TGI [23]: 1390 nM
- GI50 [24]: 604 nM
- TGI [24]: 1450 nM
- GI50 [25]: 408 nM
- TGI [25]: 2290 nM
- GI50 [26]: 608 nM
- TGI [26]: 3050 nM
- GI50 [27]: 729 nM
- TGI [27]: 1700 nM
- GI50 [28]: 358 nM
- TGI [28]: 3560 nM
- GI50 [29]: 592 nM
- TGI [29]: 3430 nM
- GI50 [30]: 655 nM
- TGI [30]: 1970 nM
- GI50 [31]: 402 nM
- TGI [31]: 1980 nM
- GI50 [32]: 838 nM
- TGI [32]: 2270 nM
- GI50 [33]: 1400 nM
- TGI [33]: 5510 nM
- GI50 [34]: 1430 nM
- TGI [34]: 3620 nM
- GI50 [35]: 445 nM
- TGI [35]: 2950 nM
- GI50 [36]: 1120 nM
- TGI [36]: 5090 nM
- GI50 [37]: 1220 nM
- TGI [37]: 4680 nM
- GI50 [38]: 1010 nM
- TGI [38]: 4190 nM
- GI50 [39]: 570 nM
- TGI [39]: 1820 nM
- GI50 [40]: 693 nM
- TGI [40]: 1660 nM
- GI50 [41]: 1050 nM
- TGI [41]: 2540 nM
- GI50 [42]: 916 nM
- TGI [42]: 3350 nM
- GI50 [43]: 518 nM
- TGI [43]: 1250 nM
- GI50 [44]: 891 nM
- TGI [44]: 2020 nM
- GI50 [45]: 1220 nM
- TGI [45]: 3530 nM
- GI50 [46]: 902 nM
- TGI [46]: 1720 nM
- GI50 [47]: 1510 nM
- TGI [47]: 4610 nM
- GI50 [48]: 825 nM
- TGI [48]: 3850 nM
- GI50 [49]: 1580 nM
- TGI [49]: 5030 nM
- GI50 [50]: 893 nM
- TGI [50]: 1810 nM
- GI50 [51]: 322 nM
- TGI [51]: 2820 nM
- GI50 [52]: 382 nM
- TGI [52]: 3220 nM
- GI50 [53]: 1400 nM
- TGI [53]: 5780 nM
- GI50 [54]: 1610 nM
- TGI [54]: 4130 nM
- GI50 [55]: 1060 nM
- TGI [55]: 4150 nM
- GI50 [56]: 1150 nM
- TGI [56]: 3000 nM
- GI50 [57]: 996 nM
- TGI [57]: 2380 nM
- GI50 [58]: 1170 nM
- TGI [58]: 3390 nM
